Drawing on patent US20240246940A1, “HETEROARYL DERIVATIVE COMPOUND AND USE THEREOF” (VORONOI INC., priority 2021, published 2024), this text covers GI50 for 15 compounds.

What all share (format): cell-based
Experiment [1] concerns SK-BR-3 cells (HER2 overexpressing cell line). As to the kind of experiment: SK-BR-3 cell proliferation inhibitory activity (CellTiter-Glo, 120 hours). Conditions: Homo sapiens. The essentials: (§1)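 Cells seeded 24 h (HaCaT 3000/well, N-87 5000/well) or 48 h (SK-BR-3, BT-474 5000/well) before 11-point dosing: 0.2 nM–10 μM (SK-BR-3, BT-474), […]–5 μM (N-87), 0.8 nM–45 μM (HaCaT). CellTiter-Glo luminescence read; GI50 from growth relative to control, triplicate.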

Experiment [2] relates to N-87 cells (HER2 overexpressing cell line). Description: N-87 cell proliferation inhibitory activity (CellTiter-Glo, 72 hours). As for the experimental part: To evaluate the cell proliferation inhibitory activity of the compound according to the present invention on HER2 and EGFR kinases, the following method was performed using HER2 overexpressing cell lines (SK-BR-3, BT-474, and N-87) and EGFR expressing cell line (HaCaT).
McCOY'S 5A supplemented with 10% FBS was used for SK-BR-3 cells, RPMI-1640 medium supplemented with 20% FBS was used for BT-474 cancer cells, and RPMI-1640 medium supplemented with 10% FBS was used for N-87 cancer cells. DMEM supplemented with 10% FBS was used for HaCaT cells.
For SK-BR-3 cells, 5000 cells were aliquoted into each well of a white clear bottom 96 well plate (Corning) 48 hours before treatment with the compounds of Examples. For BT-474 cells, 5000 cells were aliquoted into each well of a white clear bottom 96 well plate (Corning) 48 hours before treatment with the compounds of Examples. For N-87 cells, 5000 cells were aliquoted into each well of a white clear bottom 96 well plate (Corning) 24 hours before treatment with the compounds of Examples. For HaCaT cells, 3000 cells were aliquoted into each well of a white clear bottom 96 well plate (Corning) 24 hours before treatment with the compounds of Examples. For SK-BR-3 cells and BT-474 cells, the compounds of Examples were diluted in dimethyl sulfoxide (three-fold dilution, a total of 11 concentrations) and injected each in an amount of 1 μl to a final concentration of 0.2 nM to 10 μM. For N-87 cells, the compounds of Examples were diluted in dimethyl sulfoxide (five-fold dilution, a total of 11 concentrations) and injected each in an amount of 0.5 μl to a final concentration of […] to 5 μM. For HaCaT cells, the compounds of Examples were diluted in dimethyl sulfoxide (three-fold dilution, a total of 11 concentrations) and injected each in an amount of 0.5 μl to a final concentration of 0.8 nM to 45 μM. For the measurement of living cells, the cells were stored at room temperature for 10 minutes using CellTiter-Glo cell viability reagent (Promega) after a certain period of time (SK-BR-3: 120 hours, BT-474: 120 hours, N-87: 72 hours, and HaCaT: 72 hours) post treatment with the compounds of Examples, and the luminescence intensity thereof was measured using a reader (SynergyNeo, Biotek). Each test was repeated three times.
The result values were calculated as a cell growth rate (%) compared to those of the control group. A graph was created using the GraphPad Prism version 5.0 program, and GI50 values were calculated.

Experiment [3] concerns BT-474 cells (HER2 overexpressing cell line). As to the kind of experiment: BT-474 cell proliferation inhibitory activity (CellTiter-Glo, 120 hours). Particulars: Homo sapiens. The essentials:
as §1

In experiment [4] the test system is HaCaT cells (EGFR expressing cell line). Description: HaCaT cell proliferation inhibitory activity (CellTiter-Glo, 72 hours). Conditions: Homo sapiens. The essentials:
as §1

Take `C=CC(=O)N1CC[C@@H](Oc2cc3c(Nc4cc(-c5ccc(F)cc5F)ccc4OC)ncnc3cc2OC)[C@H](F)C1` (relative stereo) [Example 171, 1-(trans-4-((4-((2′,4′-difluoro-4-methoxy-[1,1′-biphenyl]-3-yl)amino)-7-methoxy-quinazolin-6-yl)oxy)-3-fluoropiperidin-1-yl)prop-2-en-1-one]: the GI50 in experiment [1], in experiment [2], in experiment [3] and in experiment [4] was not above 150 nM each time.

Take `C=CC(=O)N1CC[C@H](Oc2cc3c(Nc4cc(-c5ccco5)ccc4OC)ncnc3cc2OC)[C@H](F)C1` (relative stereo) [Example 181, 1-(cis-3-fluoro-4-((4-((5-(furan-2-yl)-2-methoxyphenyl)amino)-7-methoxy-quinazolin-6-yl)oxy)piperidin-1-yl)prop-2-en-1-one]: the GI50 in experiment [1], in experiment [2], in experiment [3] and in experiment [4] was not above 150 nM in each case.

Turning to `C=CC(=O)N1CC[C@H](Oc2cc3c(Nc4cc(-c5ccc(F)cc5F)ccc4OC)ncnc3cc2OC)[C@H](F)C1` (relative stereo) [Example 182, 1-(cis-4-((4-((2′,4′-difluoro-4-methoxy-[1,1′-biphenyl]-3-yl)amino)-7-methoxy-quinazolin-6-yl)oxy)-3-fluoropiperidin-1-yl)prop-2-en-1-one], the concentration for 50% growth inhibition (GI50) in experiment [1], in experiment [2], in experiment [3] and in experiment [4] was not above 150 nM throughout.

For the compound `C=CC(=O)N1CC(Oc2cc3c(Nc4cc(-c5cccc(C(F)(F)F)c5F)ccc4OC)ncnc3cc2OC)C1` [Example 17, 1-(3-((4-((2′-fluoro-4-methoxy-3′-(trifluoromethyl)-[1,1′-biphenyl]-3-yl)amino)-7-methoxy-quinazolin-6-yl)oxy)azetidin-1-yl)prop-2-en-1-one], the concentration for 50% growth inhibition (GI50) in experiment [1] was not above 150 nM; in experiment [2] it was not above 150 nM; in experiment [3], not above 150 nM; in experiment [4], 150 to 1000 nM.

In the case of `C=CC(=O)N1CC(Oc2cc3c(Nc4cc(-c5cccc(C#N)c5F)ccc4OC)ncnc3cc2OC)C1` [Example 21, 3'-((6-((1-acryloylazetidin-3-yl)oxy)-7-methoxy-quinazolin-4-yl)amino)-2-fluoro-4′-methoxy-[1,1′-biphenyl]-3-carbonitrile], the GI50 in experiment [1], in experiment [2], in experiment [3] and in experiment [4] was not above 150 nM throughout.

With `C=CC(=O)N1CC(Oc2cc3c(Nc4cc(-c5ccc(F)nc5)ccc4OC)ncnc3cc2OC)C1` [Example 22, 1-(3-( (4-((5-(6-fluoropyridin-3-yl)-2-methoxyphenyl)amino)-7-methoxy-quinazolin-6-yl)oxy)azetidin-1-yl)prop-2-en-1-one], the GI50 in experiment [1], in experiment [2], in experiment [3] and in experiment [4] was not above 150 nM throughout.

For the compound `C=CC(=O)N1CC(Oc2cc3c(Nc4cc(-c5ccccc5F)ccc4OC)ncnc3cc2OC)C1` [Example 24, 1-(3-((4-((2′-fluoro-4-methoxy-[1,1′-biphenyl]-3-yl)amino)-7-methoxy-quinazolin-6-yl)oxy)azetidin-1-yl)prop-2-en-1-one], the GI50 in experiment [1], in experiment [2], in experiment [3] and in experiment [4] was not above 150 nM each time.

On to `C=CC(=O)N1CCC(Oc2cc3c(Nc4cc(-c5ccc(F)cc5)ccc4OC)ncnc3cc2OC)CC1` [Example 67, 1-(4-((4-((4′-fluoro-4-methoxy-[1,1′-biphenyl]-3-yl)amino)-7-methoxy-quinazolin-6-yl)oxy)piperidin-1-yl)prop-2-en-1-one], for which the GI50 in experiment [1] is not above 150 nM; in experiment [2] it was not above 150 nM; in experiment [3], not above 150 nM; in experiment [4] it was 150 to 1000 nM.

Turning to `C=CC(=O)N1CCC(Oc2cc3c(Nc4cc(-c5ccsc5)ccc4OC)ncnc3cc2OC)CC1` [Example 79, 1-(4-((7-methoxy-4-((2-methoxy-5-(thiophen-3-yl)phenyl)amino)quinazolin-6-yl)oxy)piperidin-1-yl)prop-2-en-1-one], the GI50 in experiment [1], in experiment [2], in experiment [3] and in experiment [4] was not above 150 nM in each case.

With `C=CC(=O)N1CCC(F)(F)C(Oc2cc3c(Nc4cc(-c5ccco5)ccc4OC)ncnc3cc2OC)C1` (centres unmarked) [Example 113, 1-(4,4-difluoro-3-((4-((5-(furan-2-yl)-2-methoxyphenyl)amino)-7-methoxy-quinazolin-6-yl)oxy)piperidin-1-yl)prop-2-en-1-one], the GI50 in experiment [1], in experiment [2], in experiment [3] and in experiment [4] was not above 150 nM throughout.

As for `C=CC(=O)N1CCC(Oc2cc3c(Nc4cc(-c5cccc(C(F)(F)F)c5F)ccc4OC)ncnc3cc2OC)CC1` [Example 138, 1-(4-((4-((2′-fluoro-4-methoxy-3′-(trifluoromethyl)-[1,1′-biphenyl]-3-yl)amino)-7-methoxy-quinazolin-6-yl)oxy)piperidin-1-yl)prop-2-en-1-one], the GI50 in experiment [1] is not above 150 nM; in experiment [2], not above 150 nM; in experiment [3], not above 150 nM; in experiment [4], 150 to 1000 nM.

In the case of `C=CC(=O)N1CCC(Oc2cc3c(Nc4cc(-c5cccc(C(F)(F)F)c5)ccc4OC)ncnc3cc2OC)CC1` [Example 139, 1-(4-((7-methoxy-4-((4-methoxy-3′-(trifluoromethyl)-[1,1′-biphenyl]-3-yl)amino)quinazolin-6-yl)oxy)piperidin-1-yl)prop-2-en-1-one], the GI50 was not above 150 nM in experiment [1], not above 150 nM in experiment [2], not above 150 nM in experiment [3] and 150 to 1000 nM in experiment [4].

Turning to `C=CC(=O)N1CCC(Oc2cc3c(Nc4cc(-c5ccco5)c(F)cc4OC)ncnc3cc2OC)C(F)C1` (centres unmarked) [Example 140, 1-(3-fluoro-4-((4-((4-fluoro-5-(furan-2-yl)-2-methoxyphenyl)amino)-7-methoxy-quinazolin-6-yl)oxy)piperidin-1-yl)prop-2-en-1-one], the GI50 in experiment [1], in experiment [2], in experiment [3] and in experiment [4] was not above 150 nM throughout.

As for `C=CC(=O)N1CCC(Oc2cc3c(Nc4cc(-c5ccc(F)c(C(F)(F)F)c5)ccc4OC)ncnc3cc2OC)CC1` [Example 142, 1-(4-((4-((4′-fluoro-4-methoxy-3′-(trifluoromethyl)-[1,1′-biphenyl]-3-yl)amino)-7-methoxy-quinazolin-6-yl)oxy)piperidin-1-yl)prop-2-en-1-one], the GI50 was not above 150 nM in experiment [1], not above 150 nM in experiment [2], not above 150 nM in experiment [3] and 150 to 1000 nM in experiment [4].

Regarding `C=CC(=O)N1CCC(Nc2cc3c(Nc4cc(-c5ccc(F)cc5F)ccc4OC)ncnc3cc2OCC)CC1` [Example 301, 1-(4-((4-((2′,4′-difluoro-4-methoxy-[1,1′-biphenyl]-3-yl)amino)-7-ethoxyquinazolin-6-yl)amino)piperidin-1-yl)prop-2-en-1-one], the GI50 in experiment [2], in experiment [3] and in experiment [4] was not above 150 nM each time.
